Earlier results in patent US20220047724A1, “NOVEL TRICARBOCYANINE-CYCLODEXTRIN(S) CONJUGATES AND USE THEREOF” (CYANAGEN S.R.L., priority 2014, published 2022).
Like-named read-outs stand apart in the source and are kept apart here.

Legend:
[1] = Sigma-Aldrich Product No. H-107, vendor data

Substance | Toxicity (mice; mouse, in vivo) | Toxicity (rabbits; rabbit, in vivo) | Water solubility [1] | Toxicity (mice; mice) | Toxicity (rabbits; rabbits)
2-hydroxypropyl-β-cyclodextrin [HβCD] | non-toxic | non-toxic | 45 g/100 mL |  | 
2-hydroxypropyl-γ-cyclodextrin [HγCD] |  |  |  | non-toxic | non-toxic
